Reference: the NIST ThermoML archive (doi:10.1016/j.jct.2004.07.015)

Assays:
[1] = 101.33 kPa, Liquid
[2] = xn = mol fraction of the nth substance listed; details: 101.3 kPa, Liquid

C1COCO1 [1,3-dioxolane]
[1]
Details	mass density [kg/m3]	speed of sound [m/s]
298.15 K	1058.98	1340.2
313.15 K	1040	1270.9

C1COCO1 [1,3-dioxolane] + CC(C)(C)O
[2]
Details	mass density, 298.15 K [kg/m3]	mass density, 313.15 K [kg/m3]	speed of sound, 298.15 K [m/s]	speed of sound, 313.15 K [m/s]
x1 = 0.0495	789.79	–	1129.2	–
x1 = 0.0567	–	775.49	–	1065.2
x1 = 0.0949	–	782.77	–	1071.1
x1 = 0.0965	798.83	–	1135.6	–
x1 = 0.1973	–	803.78	–	1087.4
x1 = 0.1996	820.33	–	1151	–
x1 = 0.2909	840.96	–	1165.8	–
x1 = 0.2919	–	824.8	–	1103.5
x1 = 0.4039	–	851.81	–	1123.4
x1 = 0.4049	868.7	–	1186.2	–
x1 = 0.4951	–	875.4	–	1141.2
x1 = 0.4972	892.83	–	1204.9	–
x1 = 0.5948	–	903.12	–	1162.4
x1 = 0.5974	920.82	–	1226.8	–
x1 = 0.6997	–	934.45	–	1187.1
x1 = 0.7033	952.73	–	1252.5	–
x1 = 0.8031	–	967.86	–	1213.5
x1 = 0.8033	985.46	–	1279.3	–
x1 = 0.8944	1017.75	–	1305.9	–
x1 = 0.8959	–	1000.17	–	1239.6
x1 = 0.9439	1036.49	–	1321.3	–
x1 = 0.9464	–	1018.99	–	1254.3

C1COCO1 [1,3-dioxolane] + CC(C)CO
[2]
Details	mass density, 298.15 K [kg/m3]	mass density, 313.15 K [kg/m3]	speed of sound, 298.15 K [m/s]	speed of sound, 313.15 K [m/s]
x1 = 0.0434	–	793.86	–	1140.5
x1 = 0.0675	810.83	–	1193.2	–
x1 = 0.0922	–	802.94	–	1143.6
x1 = 0.0932	815.89	–	1195.3	–
x1 = 0.1938	–	822.73	–	1151.2
x1 = 0.2005	837.99	–	1205.1	–
x1 = 0.2946	858.48	843.76	1214.8	1159.9
x1 = 0.395	881.68	–	1226.7	–
x1 = 0.3984	–	866.86	–	1170.5
x1 = 0.5044	–	892.29	–	1182.9
x1 = 0.5062	908.95	–	1241.8	–
x1 = 0.6042	–	917.95	–	1196.4
x1 = 0.6065	935.18	–	1258.1	–
x1 = 0.6962	–	943.18	–	1211.4
x1 = 0.6977	960.69	–	1274.3	–
x1 = 0.7995	991.23	–	1295.4	–
x1 = 0.8009	–	974.09	–	1230.6
x1 = 0.8928	–	1003.34	–	1249.5
x1 = 0.8957	1022.45	–	1316.5	–
x1 = 0.9439	–	1020.41	–	1260.2
x1 = 0.9451	1039.33	–	1327.6	–

C1COCCO1 [1,4-dioxane]
[1]
Details	mass density [kg/m3]	speed of sound [m/s]
298.15 K	1027.96	1344.8
313.15 K	1010.8	1279.8
